# Literature values in patent US8188123B2, “(Pyrrolidin-2-yl)phenyl derivatives” (priority 2008, dated 2012).
# Where two headings read alike, the source gives them in different places.
# Experiments:
# mechanical allodynia [1] = details: intraperitoneal administration; Chung/von Frey
# mechanical allodynia [2] = details: local administration to the sciatic nerve 4 h after surgery; Brennan model
# [3] = system: nerve injured myelinated DRG
# spontaneous pain = details: rat mild thermal injury model
# allodynia = details: rat CFA model of inflammatory pain
# [4] = system: ectopic discharges in A-beta and A-delta fibres; details: nerve injury
smiles,measurement,setting,value
CCN(c1ccccc1)c1cc(=NC)n(C)c(C)n1.Cl [ZD 7288],mechanical allodynia,mechanical allodynia [1],dose-dependently reverses mechanical allodynia
same,mechanical allodynia,mechanical allodynia [2],attenuates mechanical allodynia
same,spontaneous activity,[3],reduces spontaneous activity
same,spontaneous pain,spontaneous pain,blocks spontaneous pain
same,allodynia,allodynia,suppresses allodynia
same,firing frequency of ectopic discharges,[4],"reduced the firing frequency of ectopic discharges in A-beta and A-delta fibres, without causing conduction block"
